Measurements published in patent US9974761B2, “Medications for deposition on biological surfaces” (The Procter & Gamble Company, priority 2014, dated 2018).

Tested on: human TRPM8
Experiment: TRPM8 Protocol-FLIPR Assay (intracellular Ca2+)
Type: cell-based
Conditions: for TRPM8 Time Course Activity 50 sec % of WS5 / TRPM8 Time Course Activity 3 min % of WS5 / TRPM8 Time Course Activity 5 min % of WS5 / TRPM8 Time Course Activity 10 min % of WS5: vs 30 uM WS-5; for TRPM8 Time Course Activity 50 sec: fluorescence at 50 sec; for TRPM8 Time Course Activity 3 min: fluorescence at 3 min; for TRPM8 Time Course Activity 5 min: fluorescence at 5 min; for TRPM8 Time Course Activity 10 min: fluorescence at 10 min
Method: To determine whether TRPM8 is activated, the intracellular calcium ion (Ca^2+) level was measured from transfected cells with the TRPM8 receptor sequence (SEQ ID NO: 3). HEK-293 (human embryonic kidney) cells stably transfected with human TRPM8 were grown in 15 ml growth medium (high glucose DMEM (Dulbecco's Modification of Eagle's Medium) supplemented with 10% FBS (fetal bovine serum), 100 ug/ml penicillin/streptomycin, 5 μg/ml blasticindin, and 100 μg/ml zeocin) in a 75 cm^2 flask for 3 days at 37° C. in a mammalian cell culture incubator set at 5% CO2 Cells were detached with addition of 2 ml of trypsin-EDTA buffer (GIBCO® 25200, Invitrogen, Grand Island, N.Y.) for about 2-3 min. Trypsin was inactivated by addition of 8 ml growth medium. Cells were transferred to a 50 ml tube and centrifuged at 850 rpm for 3 minutes to remove medium. After centrifugation, a pellet of cells was formed in the bottom of the tube separating them from the supernatant solution. The supernatant was discarded and the cell pellet was suspended in 1 ml of fresh growth medium to which 5 μl (12.5 μg) of Fluo-4 AM (Molecular Probes, Inc., Eugene, Oreg.) calcium indicator was added and incubated for 30 min with gentle shaking. Fluo-4 AM is a fluorescent dye used for quantifying cellular Ca^2+ concentrations in the 100 nM to 1 microM range. At the end of 30 minutes, 45 ml of assay buffer (1× HBSS (Hank's Balanced Salt Solution), 20 mM HEPES (4-(2-Hydroxyethyl)-1-piperazineethanesulfonic acid)) was added to wash cells and the resulting mixture was then centrifuged at 850 rpm for 3 minutes to remove excess buffer and Fluo-4 AM calcium indicator.
The pelleted cells were re-suspended in 10 ml assay buffer and 90 μl aliquots (˜50,000 cells) per well delivered to a 96-well assay plate containing 10 μl of test compounds (1 mM in assay buffer, […]) or buffer control and incubated at room temperature for 30 minutes. After 30 minutes, a plate was placed into a fluorometric imaging plate reader (FLIPR384 from Molecular Devices, Sunnyvale, Calif.) and basal fluorescence recorded (excitation wave length 488 nm and emission wave length 510 nm). Then 20 μl of […] of TRPM8 agonist WS5 coolant in the assay buffer was added and fluorescence recorded. For determining the direct effect of test compounds on TRPM8, fluorescence was measured immediately after addition of each compound (TABLES 2 and 3). Additional discussion of the FLIPR method can be found in Smart et al., Characterization using FLIPR of human vanilloid VR1 receptor pharmacology, European Journal of Pharmacology 417, 51-58 (2001) and Liu et al., Development and validation of a platelet calcium flux assay using a fluorescent imaging plate reader, Analytical Biochemistry 357, 216-224 (2006).
TRPM8 activation was determined by measuring intracellular calcium ion (Ca^2+) level from transfected cells with the TRPM8 receptor gene, as described in EXAMPLE 1, the results of which are shown in TABLES 4 and 5.

CC(C)[C@@H]1CC[C@@H](C)C[C@H]1C(=O)NCC(NC(=O)[C@@H](C)N)c1ccccc1 (single isomer, unassigned) [Compound 28 fraction 2]
TRPM8 Time Course Activity 50 sec % of WS5 (dose 6.1 nM): 19.3%
TRPM8 Time Course Activity 3 min % of WS5 (dose 6.1 nM): 46.0%
TRPM8 Time Course Activity 5 min % of WS5 (dose 6.1 nM): 50.3%
TRPM8 Time Course Activity 10 min % of WS5 (dose 6.1 nM): 50.6%
TRPM8 Time Course Activity 50 sec (dose 6.1 nM): 1944.0
TRPM8 Time Course Activity 3 min (dose 6.1 nM): 4350.0
TRPM8 Time Course Activity 5 min (dose 6.1 nM): 4763.0
TRPM8 Time Course Activity 10 min (dose 6.1 nM): 4844.0
TRPM8 Time Course Activity 50 sec % of WS5 (dose 12.2 nM): 18.0%
TRPM8 Time Course Activity 3 min % of WS5 (dose 12.2 nM): 57.6%
TRPM8 Time Course Activity 5 min % of WS5 (dose 12.2 nM): 65.7%
TRPM8 Time Course Activity 10 min % of WS5 (dose 12.2 nM): 71.1%
TRPM8 Time Course Activity 50 sec (dose 12.2 nM): 1814.0
TRPM8 Time Course Activity 3 min (dose 12.2 nM): 5446.0
TRPM8 Time Course Activity 5 min (dose 12.2 nM): 6224.0
TRPM8 Time Course Activity 10 min (dose 12.2 nM): 6809.0
TRPM8 Time Course Activity 50 sec % of WS5 (dose 24.4 nM): 23.0%
TRPM8 Time Course Activity 3 min % of WS5 (dose 24.4 nM): 68.2%
TRPM8 Time Course Activity 5 min % of WS5 (dose 24.4 nM): 76.3%
TRPM8 Time Course Activity 10 min % of WS5 (dose 24.4 nM): 82.0%
TRPM8 Time Course Activity 50 sec (dose 24.4 nM): 2311.0
TRPM8 Time Course Activity 3 min (dose 24.4 nM): 6441.0
TRPM8 Time Course Activity 5 min (dose 24.4 nM): 7226.0
TRPM8 Time Course Activity 10 min (dose 24.4 nM): 7848.0
TRPM8 Time Course Activity 50 sec % of WS5 (dose 48.8 nM): 24.9%
TRPM8 Time Course Activity 3 min % of WS5 (dose 48.8 nM): 81.7%
TRPM8 Time Course Activity 5 min % of WS5 (dose 48.8 nM): 89.6%
TRPM8 Time Course Activity 10 min % of WS5 (dose 48.8 nM): 97.0%
TRPM8 Time Course Activity 50 sec (dose 48.8 nM): 2502.0
TRPM8 Time Course Activity 3 min (dose 48.8 nM): 7721.0
TRPM8 Time Course Activity 5 min (dose 48.8 nM): 8488.0
TRPM8 Time Course Activity 10 min (dose 48.8 nM): 9289.0
TRPM8 Time Course Activity 50 sec % of WS5 (dose 97.6 nM): 49.8%
TRPM8 Time Course Activity 3 min % of WS5 (dose 97.6 nM): 106.9%
TRPM8 Time Course Activity 5 min % of WS5 (dose 97.6 nM): 113.5%
TRPM8 Time Course Activity 10 min % of WS5 (dose 97.6 nM): 118.8%
TRPM8 Time Course Activity 50 sec (dose 97.6 nM): 5007.0
TRPM8 Time Course Activity 3 min (dose 97.6 nM): 10101.0
TRPM8 Time Course Activity 5 min (dose 97.6 nM): 10747.0
TRPM8 Time Course Activity 10 min (dose 97.6 nM): 11375.0
TRPM8 Time Course Activity 50 sec % of WS5 (dose 195 nM): 72.4%
TRPM8 Time Course Activity 3 min % of WS5 (dose 195 nM): 121.5%
TRPM8 Time Course Activity 5 min % of WS5 (dose 195 nM): 126.8%
TRPM8 Time Course Activity 10 min % of WS5 (dose 195 nM): 129.8%
TRPM8 Time Course Activity 50 sec (dose 195 nM): 7287.0
TRPM8 Time Course Activity 3 min (dose 195 nM): 11477.0
TRPM8 Time Course Activity 5 min (dose 195 nM): 12007.0
TRPM8 Time Course Activity 10 min (dose 195 nM): 12427.0
TRPM8 Time Course Activity 50 sec % of WS5 (dose 390 nM): 87.1%
TRPM8 Time Course Activity 3 min % of WS5 (dose 390 nM): 126.5%
TRPM8 Time Course Activity 5 min % of WS5 (dose 390 nM): 129.9%
TRPM8 Time Course Activity 10 min % of WS5 (dose 390 nM): 136.0%
TRPM8 Time Course Activity 50 sec (dose 390 nM): 8766.0
TRPM8 Time Course Activity 3 min (dose 390 nM): 11955.0
TRPM8 Time Course Activity 5 min (dose 390 nM): 12301.0
TRPM8 Time Course Activity 10 min (dose 390 nM): 13026.0
TRPM8 Time Course Activity 50 sec % of WS5 (dose 781 nM): 103.7%
TRPM8 Time Course Activity 3 min % of WS5 (dose 781 nM): 136.4%
TRPM8 Time Course Activity 5 min % of WS5 (dose 781 nM): 138.3%
TRPM8 Time Course Activity 10 min % of WS5 (dose 781 nM): 147.4%
TRPM8 Time Course Activity 50 sec (dose 781 nM): 10428.0
TRPM8 Time Course Activity 3 min (dose 781 nM): 12887.0
TRPM8 Time Course Activity 5 min (dose 781 nM): 13091.0
TRPM8 Time Course Activity 10 min (dose 781 nM): 14116.0
TRPM8 Time Course Activity 50 sec % of WS5 (dose 1.563 uM): 112.6%
TRPM8 Time Course Activity 3 min % of WS5 (dose 1.563 uM): 134.0%
TRPM8 Time Course Activity 5 min % of WS5 (dose 1.563 uM): 136.8%
TRPM8 Time Course Activity 10 min % of WS5 (dose 1.563 uM): 145.1%
TRPM8 Time Course Activity 50 sec (dose 1.563 uM): 11331.0
TRPM8 Time Course Activity 3 min (dose 1.563 uM): 12663.0
TRPM8 Time Course Activity 5 min (dose 1.563 uM): 12954.0
TRPM8 Time Course Activity 10 min (dose 1.563 uM): 13892.0
TRPM8 Time Course Activity 50 sec % of WS5 (dose 3.125 uM): 116.9%
TRPM8 Time Course Activity 3 min % of WS5 (dose 3.125 uM): 134.4%
TRPM8 Time Course Activity 5 min % of WS5 (dose 3.125 uM): 136.6%
TRPM8 Time Course Activity 10 min % of WS5 (dose 3.125 uM): 145.1%
TRPM8 Time Course Activity 50 sec (dose 3.125 uM): 11757.0
TRPM8 Time Course Activity 3 min (dose 3.125 uM): 12699.0
TRPM8 Time Course Activity 5 min (dose 3.125 uM): 12937.0
TRPM8 Time Course Activity 10 min (dose 3.125 uM): 13890.0
TRPM8 Time Course Activity 50 sec % of WS5 (dose 6.25 uM): 121.6%
TRPM8 Time Course Activity 3 min % of WS5 (dose 6.25 uM): 133.8%
TRPM8 Time Course Activity 5 min % of WS5 (dose 6.25 uM): 136.2%
TRPM8 Time Course Activity 10 min % of WS5 (dose 6.25 uM): 144.0%
TRPM8 Time Course Activity 50 sec (dose 6.25 uM): 12236.0
TRPM8 Time Course Activity 3 min (dose 6.25 uM): 12644.0
TRPM8 Time Course Activity 5 min (dose 6.25 uM): 12891.0
TRPM8 Time Course Activity 10 min (dose 6.25 uM): 13793.0
TRPM8 Time Course Activity 50 sec % of WS5 (dose 12.5 uM): 123.4%
TRPM8 Time Course Activity 3 min % of WS5 (dose 12.5 uM): 132.3%
TRPM8 Time Course Activity 5 min % of WS5 (dose 12.5 uM): 135.2%
TRPM8 Time Course Activity 10 min % of WS5 (dose 12.5 uM): 143.6%
TRPM8 Time Course Activity 50 sec (dose 12.5 uM): 12415.0
TRPM8 Time Course Activity 3 min (dose 12.5 uM): 12501.0
TRPM8 Time Course Activity 5 min (dose 12.5 uM): 12801.0
TRPM8 Time Course Activity 10 min (dose 12.5 uM): 13755.0
TRPM8 Time Course Activity 50 sec % of WS5 (dose 25 uM): 120.4%
TRPM8 Time Course Activity 3 min % of WS5 (dose 25 uM): 126.9%
TRPM8 Time Course Activity 5 min % of WS5 (dose 25 uM): 129.7%
TRPM8 Time Course Activity 10 min % of WS5 (dose 25 uM): 137.2%
TRPM8 Time Course Activity 50 sec (dose 25 uM): 12110.0
TRPM8 Time Course Activity 3 min (dose 25 uM): 11993.0
TRPM8 Time Course Activity 5 min (dose 25 uM): 12284.0
TRPM8 Time Course Activity 10 min (dose 25 uM): 13140.0
TRPM8 Time Course Activity 50 sec % of WS5 (dose 50 uM): 125.7%
TRPM8 Time Course Activity 3 min % of WS5 (dose 50 uM): 130.7%
TRPM8 Time Course Activity 5 min % of WS5 (dose 50 uM): 133.5%
TRPM8 Time Course Activity 10 min % of WS5 (dose 50 uM): 137.6%
TRPM8 Time Course Activity 50 sec (dose 50 uM): 12648.0
TRPM8 Time Course Activity 3 min (dose 50 uM): 12352.0
TRPM8 Time Course Activity 5 min (dose 50 uM): 12644.0
TRPM8 Time Course Activity 10 min (dose 50 uM): 13179.0
TRPM8 Time Course Activity 50 sec % of WS5 (dose 100 uM): 121.7%
TRPM8 Time Course Activity 3 min % of WS5 (dose 100 uM): 125.2%
TRPM8 Time Course Activity 5 min % of WS5 (dose 100 uM): 127.5%
TRPM8 Time Course Activity 10 min % of WS5 (dose 100 uM): 128.3%
TRPM8 Time Course Activity 50 sec (dose 100 uM): 12246.0
TRPM8 Time Course Activity 3 min (dose 100 uM): 11826.0
TRPM8 Time Course Activity 5 min (dose 100 uM): 12074.0
TRPM8 Time Course Activity 10 min (dose 100 uM): 12287.0
